# Data as given in patent US20090163571A1, “PHARMACEUTICAL FOR USE IN THE TREATMENT OF URETEROLITHIASIS” (KISSEI PHARMACEUTICAL CO., LTD, priority 2005, published 2009).
# Where a name gives a salt, the structure may show the parent alone.
# Columns and labels:
# [1] = system: isolated hamster ureter; test: Inhibition of phenylephrine-induced contraction of isolated hamster ureter (organ bath); conditions: for pA2: against phenylephrine concentration-response curve
# [2] = anesthetized dogs; compared with the compound of general formula (I); cited from earlier work
SMILES,pA2 [1],"inhibitory effect against phenylephrine induced ureteral contraction (shift of concentration-response curve) ([1]; 3×10^−10, 1×10^−9, 3×10^−9 mol/L, about 30 min pretreatment)",decrease of blood pressure [2]
COc1ccccc1N1CCN(CCN2C(=O)CC3(CCCC3)CC2=O)CC1 [BMY-7378],5.75,–,–
"C[C@H](Cc1cc2c(c(C(N)=O)c1)N(CCCO)CC2)NCCOc1ccccc1OCC(F)(F)F [Compound 1, (−)-1-(3-hydroxypropyl)-5-((2R)-2-{[2-((2-[(2,2,2-trifluoroethyl)oxy]phenyl)oxy)ethyl]amino}propyl)-2,3-dihydro-1H-indole-7-carboxamide]",9.44,caused concentration-dependently a parallel rightward shift of the concentration-response curve for phenylephrine,–
COc1ccccc1N1CCN(CC(O)COc2cccc3ccccc23)CC1 (stereo not drawn) [naftopidil],6.54,–,–
CCOc1ccccc1OCCN[C@H](C)Cc1ccc(OC)c(S(N)(=O)=O)c1 [tamsulosin hydrochloride],9.85,–,decreases blood pressure more strongly than the compound represented by the above general formula (I)
